Data on 1 molecule can be found in patent US20160067211A1, “PHARMACEUTICAL COMPOSITION” (Eberhard Karls Universitaet Tuebingen Medizinische Fakultaet, priority 2013, published 2016).

SMILES strings stand for the structures.

The target of data set [1] is P-glycoprotein (Homo sapiens, UniProt P08183). The note with it: cited from earlier work.
Data set [2] relates to SK-MEL-28 melanoma cells. The data set can be described thus: FACS cell cycle analysis (PI), SK-MEL-28. The note with it: SK-MEL-28, 100 μM, 48 hours. Format: cell-based, human. The method, then:
(§1) (A) Cell cycle FACS analyses of PI stained BLM and SK-MEL-28 melanoma cells. 100 μM of 8-PN-induced a G2 arrest in both cells. (B) FACS analyses of BLM and SK-MEL-28 melanoma cells treated with 100 μM 6-PN or 8-PN and stained for annexin V/PI; staurosporin was used as control for apoptosis induction and DMSO as vehicle control. […] (C) BLM and SK-MEL-28 melanoma cells were treated with 100 μM of PNs; TSA, SAHA and EMSO were used as controls.
(§2) To further analyze the possibility of apoptosis induction, an extensive apoptosis assay was performed on SK-MEL-28 melanoma cells 4 hours after treatment with 100 μM 6-PN or 8-PN (FIG. 9). […] This was verified by FACS cell cycle analyses to screen for a possible increase of the sub-G1 fraction of cells (apoptotic cells) or for the induction of a G2 arrest (inhibition of proliferation). […] To further differentiate between the induction of apoptosis and/or necrosis an PI/Annexin V staining of SK-MEL-28 and BLM cells was performed 4 hours and 24 hours after the treatment with 6-PN or 8-PN; 10 μM staurosporin (6 hours treatment) was used as positive control for the induction of apoptosis; DMSO treatment was used as vehicle control. The cells were then analyzed by FACS.

Data set [3] relates to all tested cancer cells (Tab. 1). The data set can be described thus: Proliferation of all tested tumor cell lines (Table 1). Format: cell-based. The note with it: 19 tumor cell lines of Tab. 1. The source says:
The inventors have tested 19 different tumor cell lines in total, including five melanoma cell lines, two liver cancer cell lines, three breast cancer cell lines, three colon cancer cell lines, two prostate cancer cell lines, two lung cancer cell lines and to renal cancer cell lines.

Data set [4] relates to BLM melanoma cells. The data set is described as follows: FACS cell cycle analysis (PI), BLM. Format: cell-based, human. To be noted: 100 μM, 48 hours. The method, then: as §1, §2
Data set [5] deals with LC3 in BLM melanoma cells. The data set can be described thus: Western blot LC3 (autophagy), BLM. The format is cell-based, human. To be noted: 100 μM, after 12-24 hours. How it is done: as §1
The following antibodies were used: Anti-Vinculin and Anti-Actin (1:5000, Sigma-Aldrich), Anti-Acetyl-Histon H3 (1:5000, Millipore, Billerica, USA), Anti-Caspase-3 (1:1000), Anti-AKT, Anti-pAKT, Anti-ERK, Anti-pERK, […], Anti-p70S6 Kinase, and Anti-pS6 protein (1:1000), all from Cell Signaling, Frankfurt, Germany), Anti-LC3 (1:5000, Sigma-Aldrich).
Since it has been speculated that the formation of intracytoplasmic vacuoles in pancreatic or breast cancer cells by 6-PN and 8-PN observed in pervious studies might represent an induction of autophagy, this issue was further investigated on a molecular level. BLM and SK-MEL-28 melanoma cells were treated with 100 μM of 6-PN, 8-PN, SAHA or TSA (and with DMSO as control), and the treated cells were lysed for protein extraction after 1 hour, 2 hours, 4 hours, 12 hours and 24 hours. […]
(A western blot detects proteins with antibodies after separation by electrophoresis.)

In data set [6] the test system is chicken embryos. The data set can be described thus: Embryo toxicity testing in chicken embryos. Format: in vivo. The note with it: 100 μM in ethanol and PBS, after 72 hours. The method, then:
FIG. 11: 6-PN and 8-PN reduce proliferation and invasion of BLM and LOXIMVI melanoma cells in human epidermal skin reconstructs and induce little embryo toxicity. (A) BLM melanoma cells and keratinocytes were seeded on top of a collagen matrix populated by fibroblasts. After 16 days a keratinizing stratified epithelium with a rudimentary corium is formed. […] (B) Similar results were obtained for LOXIMVI melanoma cells under the same treatment conditions. Only nests of dead, MIB1 negative LOXIMVI cells were detected after treatment with the PNs. (C) Chicken embryos stage 13HH (corresponding to 6 human gestational weeks) were exposed to DMSO as control, 100 μM 6-PN or 100 μM 8-PN to determine LD50 values. Survival rates after 24 hours, 48 hours, and 72 hours are depicted in a Kaplan-Meier plot.
Fertilized eggs of leghorn chickens (Gallus gallus domesticus) were incubated at 38° C. in a temperature-controlled, humidified brooder. […]
Due to the detected cytotoxic effects on cancer cells and of melanocytes in vitro, the determination of in vivo embryotoxicity was of great interest. To this end, 2-day chicken embryos were treated for 24, 48 and 72 hours with 100 μM 6-PN or 100 μM 8-PN to monitor survival as readout for lethal embryotoxicity (FIG. 11C). […]

Chain of P-glycoprotein (P08183 whole entry): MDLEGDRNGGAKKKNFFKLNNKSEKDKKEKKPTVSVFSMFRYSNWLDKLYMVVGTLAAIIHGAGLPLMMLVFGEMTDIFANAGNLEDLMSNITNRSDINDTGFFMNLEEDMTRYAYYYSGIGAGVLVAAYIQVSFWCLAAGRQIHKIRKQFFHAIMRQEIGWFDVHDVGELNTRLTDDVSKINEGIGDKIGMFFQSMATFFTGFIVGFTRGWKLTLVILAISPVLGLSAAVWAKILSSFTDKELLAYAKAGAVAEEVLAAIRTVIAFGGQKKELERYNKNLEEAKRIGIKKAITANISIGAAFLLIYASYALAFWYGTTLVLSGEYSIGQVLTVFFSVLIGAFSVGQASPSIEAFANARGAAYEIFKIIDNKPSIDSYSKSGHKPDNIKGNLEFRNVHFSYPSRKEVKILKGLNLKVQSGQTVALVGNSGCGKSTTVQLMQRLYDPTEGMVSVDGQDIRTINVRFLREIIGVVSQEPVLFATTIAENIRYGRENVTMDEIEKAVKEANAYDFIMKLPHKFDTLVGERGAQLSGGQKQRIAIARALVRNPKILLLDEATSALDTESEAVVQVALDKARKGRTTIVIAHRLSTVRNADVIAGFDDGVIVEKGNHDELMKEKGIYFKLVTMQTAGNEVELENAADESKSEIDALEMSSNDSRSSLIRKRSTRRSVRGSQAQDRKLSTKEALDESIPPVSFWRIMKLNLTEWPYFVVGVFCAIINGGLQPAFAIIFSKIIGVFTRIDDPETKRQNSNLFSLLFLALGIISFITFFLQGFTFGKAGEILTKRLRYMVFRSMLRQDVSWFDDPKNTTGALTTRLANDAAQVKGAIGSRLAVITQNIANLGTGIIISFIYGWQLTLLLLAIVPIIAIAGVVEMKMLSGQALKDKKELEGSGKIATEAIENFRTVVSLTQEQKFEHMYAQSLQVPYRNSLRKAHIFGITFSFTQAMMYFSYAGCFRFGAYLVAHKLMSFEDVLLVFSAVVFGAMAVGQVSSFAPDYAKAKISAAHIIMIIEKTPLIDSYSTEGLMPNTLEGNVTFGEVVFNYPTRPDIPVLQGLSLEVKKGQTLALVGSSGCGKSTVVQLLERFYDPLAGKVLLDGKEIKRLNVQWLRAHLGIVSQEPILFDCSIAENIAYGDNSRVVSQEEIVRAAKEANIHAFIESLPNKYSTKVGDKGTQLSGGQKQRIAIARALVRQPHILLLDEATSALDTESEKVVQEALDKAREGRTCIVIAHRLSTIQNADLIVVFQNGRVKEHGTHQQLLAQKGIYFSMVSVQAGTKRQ

For `CC(C)=CCc1c(O)cc(O)c2c1OC(c1ccc(O)cc1)CC2=O` (centres unmarked) [8-PN, 5,7-Dihydroxy-2-(4-hydroxy-phenyl)-8-(3-methyl-but-2-enyl)-chroman-4-one], the “inhibition of the P-glycoprotein” value in data set [1] was “inhibition”. The “sub-G1 fraction (apoptotic cells)” value in data set [2] and in data set [4] was “remained unaffected” in each case. Moreover, the “cells in the G2 phase” value is on record as 49.8% in data set [2] (DMSO control 20.1%) and 99.6% in data set [4] (DMSO control 30.4%). The “cell proliferation in all tested cancer cells” value in data set [3] is reported as “effectively reduce cell proliferation”. Moreover, the “shift from LC3-I to LC3-II (autophagy)” value in data set [5] is recorded as “clearly induced the shift”. Also, the embryos survived in data set [6] was 8/10.
